Counter-ions that a name gives are not always drawn.
Each compound was assayed against T1, full length SGK1 (Homo sapiens, UniProt O00141) (assay: SGK1 inhibition Assay A (Caliper LabChip electrophoretic separation of fluorescent peptide substrate and phosphorylated product)). Conditions: Assay A; 20 μM ATP, 40 min incubation; read-out: SGK1 IC50.
T1 construct: 125 μM full length SGK1 (Life Technologies Part #PR7358A); purchased Life Technologies PR7358A
T1 sequence (O00141 1-431): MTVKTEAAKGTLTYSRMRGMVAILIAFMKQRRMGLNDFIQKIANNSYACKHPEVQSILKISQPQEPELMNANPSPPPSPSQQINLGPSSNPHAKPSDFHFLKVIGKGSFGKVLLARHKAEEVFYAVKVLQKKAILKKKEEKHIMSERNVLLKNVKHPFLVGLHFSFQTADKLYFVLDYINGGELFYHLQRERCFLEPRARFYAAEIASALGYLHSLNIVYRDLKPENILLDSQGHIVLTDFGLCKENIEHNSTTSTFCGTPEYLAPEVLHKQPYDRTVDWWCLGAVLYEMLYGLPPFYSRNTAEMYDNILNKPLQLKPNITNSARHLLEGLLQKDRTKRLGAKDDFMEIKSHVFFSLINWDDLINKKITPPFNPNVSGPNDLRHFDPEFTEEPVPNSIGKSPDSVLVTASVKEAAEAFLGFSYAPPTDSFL
Assay type: biochemical

Row | IC50 | Compound
1 | 3 nM | COC(=O)N1CC=C(c2cc(N3CCC[C@@H](NC(=O)c4sc(Cl)cc4OC4CCN(C(C)C)CC4)C3)c3c(N)ncnn23)C1 [Example 563, methyl (R)-3-(4-amino-5-(3-(5-chloro-3-((1-isopropylpiperidin-4-yl)oxy)thiophene-2-carboxamido)piperidin-1-yl)pyrrolo[2,1-f][1,2,4]triazin-7-yl)-2,5-dihydro-1H-pyrrole-1-carboxylate]
2 | 181 nM | CS(=O)(=O)c1ccc(-c2cc(N3CCC[C@@H](NC(=O)C4CC5(CCC5)C4)C3)c3c(N)ncnn23)cc1 [Example 29, (R)-N-(1-(4-amino-7-(4-(methylsulfonyl)phenyl)pyrrolo [2,1-f][1,2,4]triazin-5-yl)piperidin-3-yl)spiro[3.3]heptane-2-carboxamide]
3 | 27 nM | CC(=O)N1CC=C(c2cc(N3CCC[C@@H](NC(=O)c4ccc(-c5cnc(C#N)nc5)s4)C3)c3c(N)ncnn23)C1 [Example 552, (R)-N-(1-(7-(1-acetyl-2,5-dihydro-1H-pyrrol-3-yl)-4-aminopyrrolo[2,1-f][1,2,4]triazin-5-yl)piperidin-3-yl)-5-(2-cyanopyrimidin-5-yl)thiophene-2-carboxamide]
4 | 11 nM | N#Cc1ncc(-c2cc(N3CCC[C@@H](NC(=O)c4ccc(Cl)s4)C3)c3c(N)ncnn23)cc1F [Example 530, (R)-N-(1-(4-amino-7-(6-cyano-5-fluoropyridin-3-yl)pyrrolo[2,1-f][1,2,4]triazin-5-yl)piperidin-3-yl)-5-chlorothiophene-2-carboxamide]
5 | 31 nM | CC(C)n1cc(C(=O)N[C@@H]2CCCN(c3cc(-c4ccc(S(C)(=O)=O)cc4)n4ncnc(N)c34)C2)cn1 [Example 77, (R)-N-(1-(4-amino-7-(4-(methylsulfonyl)phenyl)pyrrolo[2,1-f][1,2,4]triazin-5-yl)piperidin-3-yl)-1-isopropyl-1H-pyrazole-4-carboxamide, TFA]
6 | 22 nM | COC(=O)N1CC=C(c2cc(N3CCC[C@@H](NC(=O)c4sc(Cl)cc4OCCN4C[C@@H](C)O[C@@H](C)C4)C3)c3c(N)ncnn23)C1 [Example 287, Methyl 3-(4-amino-5-((R)-3-(5-chloro-3-(2-((2S,6R)-2,6-dimethylmorpholino)ethoxy)thiophene-2-carboxamido)piperidin-1-yl)pyrrolo[2,1-f] [1,2,4]triazin-7-yl)-2,5-dihydro-1H-pyrrole-1-carboxylate]
7 | 87 nM | CC(=O)N1CC=C(c2cc(N3CCC[C@@H](NC(=O)c4cccc(C#N)c4)C3)c3c(N)ncnn23)C1 [Example 495, (R)-N-(1-(7-(1-acetyl-2,5-dihydro-1H-pyrrol-3-yl)-4-aminopyrrolo[2,1-f][1,2,4]triazin-5-yl)piperidin-3-yl)-3-cyanobenzamide]
8 | 24 nM | CCN(CC)CCOc1cc(C(F)F)sc1C(=O)N[C@@H]1CCCN(c2cc(C3=CCN(C(C)=O)C3)n3ncnc(N)c23)C1 [Example 409, (R)-N-(1-(7-(1-acetyl-2,5-dihydro-1H-pyrrol-3-yl)-4-aminopyrrolo[2,1-f][1,2,4]triazin-5-yl)piperidin-3-yl)-3-(2-(diethylamino)ethoxy)-5-(difluoromethyl) thiophene-2-carboxamide]
9 | 13 nM | Cc1nc(OCCN(C)C)c(C(=O)N[C@@H]2CCCN(c3cc(-c4ccnc(C#N)c4)n4ncnc(N)c34)C2)s1 [Example 356, (R)-N-(1-(4-amino-7-(2-cyanopyridin-4-yl)pyrrolo[2,1-f][1,2,4]triazin-5-yl)piperidin-3-yl)-4-(2-(dimethylamino)ethoxy)-2-methylthiazole-5-carboxamide]
10 | 241 nM | CC(=O)N1CC=C(c2cc(N3CCC[C@@H](NC(=O)c4ccncn4)C3)c3c(N)ncnn23)C1 [Example 740, (R)-N-(1-(7-(1-acetyl-2,5-dihydro-1H-pyrrol-3-yl)-4-aminopyrrolo[2,1-f][1,2,4]triazin-5-yl)piperidin-3-yl)pyrimidine-4-carboxamide]
11 | 13 nM | CN1CCN(c2cccc(C(=O)N[C@@H]3CCCN(c4cc(-c5ccc(=O)n(C)c5)n5ncnc(N)c45)C3)n2)CC1 [Example 797, (R)-N-(1-(4-amino-7-(1-methyl-6-oxo-1,6-dihydropyridin-3-yl)pyrrolo[2,1-f][1,2,4]triazin-5-yl)piperidin-3-yl)-6-(4-methylpiperazin-1-yl)picolinamide]
12 | 5 nM | Nc1ncnn2c(-c3ccnc(F)c3)cc(N3CCC[C@@H](NC(=O)c4sc(Cl)cc4OCCN4CCOCC4)C3)c12 [Example 148, (R)-N-(1-(4-amino-7-(2-fluoropyridin-4-yl)pyrrolo[2,1-f][1,2,4]triazin-5-yl)piperidin-3-yl)-5-chloro-3-(2-morpholinoethoxy) thiophene-2-carboxamide, TFA]
13 | 21 nM | COC(=O)NCCOc1cc(C(F)F)sc1C(=O)N[C@@H]1CCCN(c2cc(C3=CCN(C(=O)OC)C3)n3ncnc(N)c23)C1 [Example 428, Methyl (R)-3-(4-amino-5-(3-(5-(difluoromethyl)-3-(2-((methoxycarbonyl)amino)ethoxy)thiophene-2-carboxamido)piperidin-1-yl)pyrrolo[2,1-f][1,2,4]triazin-7-yl)-2,5-dihydro-1H-pyrrole-1-carboxylate]
14 | 15 nM | CC(=O)c1ncc(-c2cc(N3CCC[C@@H](NC(=O)c4cccc(N5CCN(C)CC5)n4)C3)c3c(N)ncnn23)s1 [Example 791, (R)-N-(1-(7-(2-acetylthiazol-5-yl)-4-aminopyrrolo[2,1-f][1,2,4]triazin-5-yl)piperidin-3-yl)-6-(4-methylpiperazin-1-yl)picolinamide]
15 | 53 nM | Nc1ncnn2c(-c3ccnc(C(F)F)c3)cc(N3CCC[C@@H](NC(=O)c4nc5ccccc5[nH]4)C3)c12 [Example 489, (R)-N-(1-(4-amino-7-(2-(difluoromethyl)pyridin-4-yl)pyrrolo[2,1-f][1,2,4]triazin-5-yl)piperidin-3-yl)-1H-benzo[d]imidazole-2-carboxamide]
16 | 9 nM | CC(=O)N1CC=C(c2cc(N3CCC[C@@H](NC(=O)c4sc5ccccc5c4OC4CCNCC4)C3)c3c(N)ncnn23)C1 [Example 655, (R)—N-(1-(7-(1-acetyl-2,5-dihydro-1H-pyrrol-3-yl)-4-aminopyrrolo[2,1-f][1,2,4]triazin-5-yl)piperidin-3-yl)-3-(piperidin-4-yloxy)benzo[b]thiophene-2-carboxamide]
17 | 3 nM | CC(C)N1CC2(CC(Oc3cc(Cl)sc3C(=O)N[C@@H]3CCCN(c4cc(-c5ccc(C#N)c(F)c5)n5ncnc(N)c45)C3)C2)C1 [Example 631, (R)—N-(1-(4-amino-7-(4-cyano-3-fluorophenyl)pyrrolo[2,1-f][1,2,4]triazin-5-yl)piperidin-3-yl)-5-chloro-3-((2-isopropyl-2-azaspiro[3.3]heptan-6-yl)oxy)thiophene-2-carboxamide]
18 | 2 nM | COC(=O)N1CC=C(c2cc(N3CCC[C@@H](NC(=O)c4sc(Cl)cc4OC4CCN(CCO)CC4)C3)c3c(N)ncnn23)C1 [Example 564, methyl (R)-3-(4-amino-5-(3-(5-chloro-3-((1-(2-hydroxyethyl)piperidin-4-yl)oxy)thiophene-2-carboxamido)piperidin-1-yl)pyrrolo[2,1-f][1,2,4]triazin-7-yl)-2,5-dihydro-1H-pyrrole-1-carboxylate]
19 | 131 nM | Cc1nc(C)c(C(=O)N[C@@H]2CCCN(c3cc(-c4ccc(=O)n(CC(C)C)c4)n4ncnc(N)c34)C2)s1 [Example 514, (R)-N-(1-(4-amino-7-(1-isobutyl-6-oxo-1,6-dihydropyridin-3-yl)pyrrolo[2,1-f][1,2,4]triazin-5-yl)piperidin-3-yl)-2,4-dimethylthiazole-5-carboxamide]
20 | 4 nM | NC(=O)c1ccc(-c2cc(N3CCC[C@@H](NC(=O)c4sc(Cl)cc4OCC4CCNCC4)C3)c3c(N)ncnn23)cc1F [Example 642, (R)-N-(1-(4-amino-7-(4-carbamoyl-3-fluorophenyl)pyrrolo[2,1-f][1,2,4]triazin-5-y1)piperidin-3-y1)-5-chloro-3-(piperidin-4-ylmethoxy)thiophene-2-carboxamide]
21 | 28 nM | COC(=O)N1CC=C(c2cc(N3CCC[C@@H](NC(=O)c4sc(C(F)F)cc4OCCN4CCOCC4)C3)c3c(N)ncnn23)C1 [Example 336, methyl (R)-3-(4-amino-5-(3-(5-(difluoromethyl)-3-(2-morpholinoethoxy)thiophene-2-carboxamido)piperidin-1-yl)pyrrolo[2,1-f][1,2,4]triazin-7-yl)-2,5-dihydro-1H-pyrrole-1-carboxylate]
22 | 197 nM | CC(=O)N1CC=C(c2cc(N3CCC[C@@H](NC(=O)c4sc(C(F)F)cc4C4CCN(C)CC4)C3)c3c(N)ncnn23)C1 [Example 393]

Row | Compound | IC50
23 | CC(C)n1nccc1-c1cc(N2CCC[C@@H](NC(=O)c3cccc(N4CCN(C)CC4)n3)C2)c2c(N)ncnn12 [Example 796, (R)-N-(1-(4-amino-7-(1-isopropyl-1H-pyrazol-5-yl)pyrrolo[2,1-f][1,2,4]triazin-5-yl)piperidin-3-yl)-6-(4-methylpiperazin-1-yl)picolinamide] | 785 nM
24 | CC(=O)N1CC=C(c2cc(N3CCC[C@@H](NC(=O)c4sc(Cl)cc4OC4CC(N(C)C)C4)C3)c3c(N)ncnn23)C1 (stereo partly drawn) [Example 599, (R)-N-(1-(7-(1-acetyl-2,5-dihydro-1H-pyrrol-3-yl)-4-aminopyrrolo[2,1-f][1,2,4]triazin-5-yl)piperidin-3-y1)-5-chloro-3-(3-(dimethylamino)cyclobutoxy)thiophene-2-carboxamide] | 8 nM
